Among the data in patent publication US9604996B2 (Bayer Pharma Aktiengesellschaft, priority 2013, dated 2017) are IC50 values, retold here.

pIC50: −log10 of the molar value.

As a reminder, the pIC50 is −log10 of the IC50, conventionally taken in molar units.

The target in the assay is T1, human adenosine A2b receptor (Homo sapiens, UniProt P29275).
T1 construct: expressed in transfected cells; host or cells: CHO-K1 (Chinese Hamster Ovary) with CRE-luciferase reporter
T1 sequence (P29275 1-332): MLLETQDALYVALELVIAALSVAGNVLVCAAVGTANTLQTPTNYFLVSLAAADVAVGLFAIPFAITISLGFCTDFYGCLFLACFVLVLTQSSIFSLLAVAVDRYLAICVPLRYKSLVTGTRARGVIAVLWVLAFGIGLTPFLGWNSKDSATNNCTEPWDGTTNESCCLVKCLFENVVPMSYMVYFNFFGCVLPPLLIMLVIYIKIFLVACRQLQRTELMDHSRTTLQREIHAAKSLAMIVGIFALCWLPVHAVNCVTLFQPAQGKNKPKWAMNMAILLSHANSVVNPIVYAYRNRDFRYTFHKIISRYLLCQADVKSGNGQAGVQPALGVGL
Description: Cellular reporter gene (CRE-luciferase) A2b receptor antagonist assay in recombinant CHO-K1 cells stimulated with NECA. The format is cell-based. Particulars: recombinant CHO-K1 cell line, co-incubation with EC50 concentration of NECA, 3 hours, in some cases means, rounded to two significant digits. The method, then:
B-1. Cellular In Vitro Tests for Determining A2b Receptor Activity and Adenosine Receptor Selectivity
The identification of selective antagonists of the human adenosine A2b receptor and the quantification of the efficacy and selectivity of the compounds according to the invention was carried out with the aid of recombinant cell lines for the human adenosine receptors A1, A2a, A2b and A3. These cell lines were originally derived from an ovarepithelial cell of the hamster (Chinese Hamster Ovary, CHO-K1, American Type Culture Collection, Manassas, Va. 20108, USA). In addition to the respective recombinantly expressed adenosine receptor for testing the efficacy at the A1, A2a and A2b receptors, the cell lines contain a reporter gene construct where expression of the firefly (Photinus pyralis) luciferase is under the control of a promoter which can be activated via intracellular signal cascades by stimulation of the receptors with the (not subtype-selective) adenosine receptor agonist NECA (5′-N-ethylcarboxamidoadenosine) [S. J. Hill, J. G. Baker, S. Rhees, Curr. Opin. Pharmacol. 1, 526-532 (2001)].
In the case of the A2a and A2b cell lines, this is a minimal promoter having a plurality of cAMP-responsive elements (CRE). Stimulation of the Gs coupled A2b or A2a receptors by NECA ultimately leads, via formation of cAMP, to CRE-dependent induction of luciferase expression, which is detected 3 hours after the start of the incubation with NECA using a detection solution in a suitable luminometer. For testing the antagonists, initially, in a pre-experiment, the concentration of NECA which, at the test day in question, results in half-maximum stimulation of luciferase expression (EC50 concentration) is determined By joint incubation of this EC50 concentration of NECA with the substances to be tested, it is possible to determine their antagonistic activity.
For orientation: A reporter such as luciferase makes a cellular process visible.
With `COCCn1c(=O)n(CCc2ccccc2)c(=O)c2c(C)c(C(=O)N3CCC(O)CC3)sc21` [Example 3, 6-[(4-Hydroxypiperidin-1-yl)carbonyl]-1-(2-methoxyethyl)-5-methyl-3-(2-phenylethyl)thieno [2,3-d]pyrimidine-2,4(1H,3H)-dione], the pIC50 was 6.54.

Turning to `CC(C)Cn1c(=O)c2c(C(F)F)c(C(=O)N3CCC(C)(O)CC3)sc2n(CCOC(F)(F)F)c1=O` [Example 138, 5-(Difluoromethyl)-6-[(4-hydroxy-4-methylpiperidin-1-yl)carbonyl]-3-isobutyl-1-[2-(trifluoromethoxy)ethyl]thieno[2,3-d]pyrimidine-2,4(1H,3H)-dione], the pIC50 was 7.82.

With `Cc1c(C(=O)N2CCC(O)CC2)sc2c1c(=O)n(CCc1cccnc1)c(=O)n2CCC(F)(F)F` [Example 15], the pIC50 is 7.49.

As to `CCn1c(=O)c2c(C)c(C(=O)N3CCC(O)C(O)C3)sc2n(CCC(F)(F)F)c1=O` (racemic) [Example 116, 6-[(3,4-Dihydroxypiperidin-1-yl)carbonyl]-3-ethyl-5-methyl-1-(3,3,3-trifluoropropyl)thieno [2,3-d]pyrimidine-2,4(1H,3H)-dione], the pIC50 was 6.70.

For the molecule `CCn1c(=O)c2c(C(C)F)c(C(=O)N3CCNC(=O)C3)sc2n(CCC(F)(F)F)c1=O` (racemic) [Example 147, 3-Ethyl-5-(1-fluoroethyl)-6-[(3-oxopiperazin-1-yl)carbonyl]-1-(3,3,3-trifluoropropyl)thieno[2,3-d]pyrimidine-2,4(1H,3H)-dione], the negative-log IC50 (pIC50) is 7.00.

`CCn1c(=O)c2c(C)c(C(=O)N3CCC(O)C(O)C3)sc2n(CCC(F)(F)F)c1=O` (single isomer, unassigned) [Example 120, 6-[(3,4-Dihydroxypiperidin-1-yl)carbonyl]-3-ethyl-5-methyl-1-(3,3,3-trifluoropropyl)thieno [2,3-d]pyrimidine-2,4(1H,3H)-dione]: the negative logarithm of the IC50 (pIC50) was 6.89.

Regarding `O=C(c1sc2c(c1C(F)F)c(=O)n(CCc1ccccc1)c(=O)n2CCC(F)(F)F)N1CCC(O)(CO)CC1` [Example 86, 5-(Difluoromethyl)-6-{[4-hydroxy-4-(hydroxymethyl)piperidin-1-yl]carbonyl}-3-(2-phenylethyl)-1-(3,3,3-trifluoropropyl)thieno[2,3-d]pyrimidine-2,4(1H,3H)-dione], the pIC50 was 7.92.

For `Cc1c(C(=O)N2CCC(O)CC2)sc2c1c(=O)n(CCn1ccnc1)c(=O)n2CCC(F)(F)F` [Example 55, 6-[(4-Hydroxypiperidin-1-yl)carbonyl]-3-[2-(1H-imidazol-1-yl)ethyl]-5-methyl-1-(3,3,3-trifluoropropyl)thieno[2,3-d]pyrimidine-2,4(1H,3H)-dione], the negative-log IC50 (pIC50) was 6.60.

In the case of `CCn1c(=O)c2c(C)c(C(=O)N3CCC(O)C(O)C3)sc2n(CCC(F)(F)F)c1=O` (single isomer, unassigned) [Example 118, 6-[(3,4-Dihydroxypiperidin-1-yl)carbonyl]-3-ethyl-5-methyl-1-(3,3,3-trifluoropropyl)thieno [2,3-d]pyrimidine-2,4(1H,3H)-dione], the pIC50 was 6.70.

Turning to `CCn1c(=O)c2c(C)c(C(=O)N3CCC(O)CC3)sc2n(CC2CC2(F)F)c1=O` (racemic) [Example 59, 1-[(2,2-Difluorocyclopropyl)methyl]-3-ethyl-6-[(4-hydroxypiperidin-1-yl)carbonyl]-5-methylthieno[2,3-d]pyrimidine-2,4(1H,3H)-dione (racemate)], the negative logarithm of the IC50 (pIC50) was 6.43.

For `CC(C)Cn1c(=O)c2c(C(F)F)c(C(=O)N3CCC(O)CC3)sc2n(CCOC(F)(F)F)c1=O` [Example 137, 5-(Difluoromethyl)-6-[(4-hydroxypiperidin-1-yl)carbonyl]-3-isobutyl-1-[2-(trifluoromethoxy)ethyl]thieno[2,3-d]pyrimidine-2,4(1H,3H)-dione], the pIC50 is 7.92.

On to `CCn1c(=O)c2c(C)c(C(=O)N3CCNC(=O)C3)sc2n(CCC=C(F)F)c1=O` [Example 36, 1-(4,4-Difluorobut-3-en-1-yl)-3-ethyl-5-methyl-6-[(3-oxopiperazin-1-yl)carbonyl]thieno[2,3-d]pyrimidine-2,4(1H,3H)-dione], for which the negative-log IC50 (pIC50) was 6.70.

As to `CCCn1c(=O)c2c(C(F)F)c(C(=O)N3CCC(O)CC3)sc2n(CCOC(F)(F)F)c1=O` [Example 150, 5-(Difluoromethyl)-6-[(4-hydroxypiperidin-1-yl)carbonyl]-3-propyl-1-[2-(trifluoromethoxy)ethyl]thieno[2,3-d]pyrimidine-2,4(1H,3H)-dione], the pIC50 is 8.01.

As for `CCCn1c(=O)c2c(C(F)F)c(C(=O)N3CCC(C)(O)CC3)sc2n(CCOC(F)(F)F)c1=O` [Example 151, 5-(Difluoromethyl)-6-[(4-hydroxy-4-methylpiperidin-1-yl)carbonyl]-3-propyl-1-[2-(trifluoromethoxy)ethyl]thieno[2,3-d]pyrimidine-2,4(1H,3H)-dione], the negative logarithm of the IC50 (pIC50) is 7.85.

With `CCn1c(=O)c2c(C(C)F)c(C(=O)N3CCNC(=O)C3)sc2n(CCC(F)(F)F)c1=O` (single isomer, unassigned) [Example 149, 3-Ethyl-5-(1-fluoroethyl)-6-[(3-oxopiperazin-1-yl)carbonyl]-1-(3,3,3-trifluoropropyl)thieno[2,3-d]pyrimidine-2,4(1H,3H)-dione], the pIC50 was 6.49.

Regarding `CCCn1c(=O)c2c(C(F)F)c(C(=O)N3CCC(C)(O)CC3)sc2n(CCC(F)(F)F)c1=O` [Example 142, 5-(Difluoromethyl)-6-[(4-hydroxy-4-methylpiperidin-1-yl)carbonyl]-3-propyl-1-(3,3,3-trifluoropropyl)thieno[2,3-d]pyrimidine-2,4(1H,3H)-dione], the pIC50 was 7.28.

As for `CCn1c(=O)c2c(C)c(C(=O)N3CCC(O)CC3)sc2n(CCSC(F)(F)F)c1=O` [Example 57, 3-Ethyl-6-[(4-hydroxypiperidin-1-yl)carbonyl]-5-methyl-1-{2-[(trifluoromethyl)sulphanyl]ethyl}thieno[2,3-d]pyrimidine-2,4(1H,3H)-dione], the pIC50 was 6.89.

With `CCn1c(=O)c2c(C)c(C(=O)N3CCC(O)CC3)sc2n(CCC(F)=C(F)F)c1=O` [Example 136, 3-Ethyl-6-[(4-hydroxypiperidin-1-yl)carbonyl]-5-methyl-1-(3,4,4-trifluorobut-3-en-1-yl)thieno[2,3-d]pyrimidine-2,4(1H,3H)-dione], the pIC50 is 6.51.

Turning to `Cc1c(C(=O)N2CCC(O)CC2)sc2c1c(=O)n(CCc1ccc(F)cc1)c(=O)n2CCC(F)(F)F` [Example 12, 3-[2-(4-Fluorophenyl)ethyl]-6-[(4-hydroxypiperidin-1-yl)carbonyl]-5-methyl-1-(3,3,3-trifluoropropyl)thieno[2,3-d]pyrimidine-2,4(1H,3H)-dione], the negative logarithm of the IC50 (pIC50) is 7.19.

Consider `C#CCCn1c(=O)c2c(C)c(C(=O)N3CCC(O)CC3)sc2n(CCC(F)(F)F)c1=O` [Example 61, 3-(But-3-yn-1-yl)-6-[(4-hydroxypiperidin-1-yl)carbonyl]-5-methyl-1-(3,3,3-trifluoropropyl)thieno[2,3-d]pyrimidine-2,4(1H,3H)-dione], for which the negative-log IC50 (pIC50) was 7.77.

In the case of `CCCn1c(=O)c2c(C)c(C(=O)N3CCC(O)(CO)CC3)sc2n(CCOC)c1=O` [Example 78, 6-{[4-Hydroxy-4-(hydroxymethyl)piperidin-1-yl]carbonyl}-1-(2-methoxyethyl)-5-methyl-3-propylthieno[2,3-d]pyrimidine-2,4(1H,3H)-dione], the pIC50 was 6.46.

Turning to `O=C(c1sc2c(c1C(F)F)c(=O)n(CCc1ccccc1)c(=O)n2CCC(F)(F)F)N1CCC(O)CC1` [Example 84, 5-(Difluoromethyl)-6-[(4-hydroxypiperidin-1-yl)carbonyl]-3-(2-phenylethyl)-1-(3,3,3-trifluoropropyl)thieno[2,3-d]pyrimidine-2,4(1H,3H)-dione], the negative logarithm of the IC50 (pIC50) is 7.72.

Consider `COCCn1c(=O)n(CC(F)(F)c2ccccc2)c(=O)c2c(C)c(C(=O)N3CCC(O)CC3)sc21` [Example 52, 3-(2,2-Difluoro-2-phenylethyl)-6-[(4-hydroxypiperidin-1-yl)carbonyl]-1-(2-methoxyethyl)-5-methylthieno[2,3-d]pyrimidine-2,4(1H,3H)-dione], for which the negative logarithm of the IC50 (pIC50) was 6.68.

Turning to `CCn1c(=O)c2c(C)c(C(=O)N3CCNC(=O)C3(C)C)sc2n(CCC(F)(F)F)c1=O` [Example 38, 6-[(2,2-Dimethyl-3-oxopiperazin-1-yl)carbonyl]-3-ethyl-5-methyl-1-(3,3,3-trifluoropropyl)thieno[2,3-d]pyrimidine-2,4(1H,3H)-dione], the pIC50 was 6.85.
